Results: publication PMC10784468 (Nature Communications, 2024)
Read-outs that look alike come from different tables or passages of the source. Positions of bridges follow the written chain, without caps; N, C: chain ends. Residues, ends and D or L forms follow the SMILES beside them. *: point of attachment. X1 = O=C(O)c1ccc(-c2c3nc(c(-c4ccc(C(=O)O)cc4)c4ccc([nH]4)c(-c4ccc(C(=O)*)cc4)c4nc(c(-c5ccc(C(=O)O)cc5)c5ccc2[nH]5)C=C4)C=C3)cc1; X2 = O=C(O)C/C(=C/C(=O)*)C(=O)O

What was measured:
EJ cells [1] = assay: Intracellular GSH content detection; assay type: cell-based
Experimental: Initially, EJ cells (5 × 10^5) were cultured in 6-well plate with a CO2 incubator overnight at 37 °C. […] Next, EJ cells were collected and washed with PBS for 3 times. Afterwards, the cell lysates were collected by centrifugation at 8000 g for 10 min at 4 °C after lysed by freeze-thaw treatment. Finally, the GSH contents were measured with a GSH Assay Kit based on the manufacturer’s instructions.

HUVEC cells = assay type: cell-based; conditions: for Cell viability of HUVEC: HUVEC cells, pH=7.4
Experimental: Supplementary Fig. 27. Viability of HUVEC cells after treated with Gi -F (pH=7.4) and Gi-F-CAA (pH=7.4) at different
concentrations for 48 h (n=3 experimental repeats). Experiment was independently repeated three times with
(1 picture or pasted object on this page, not shown here)

[2] = Critical aggregation concentration (pyrene probe, I338/I335); assay type: physicochemical; conditions: for I338/I335 (pyrene): pyrene 6 μM, emission 393 nm; for critical aggregation concentration (CAC): pyrene probe, I338/I335, PBS 0.01 M, pH 7.4
Experimental: The CACs were determined using pyrene as a fluorescent probe. In brief, 50 μL of pyrene solution in acetone (480 μM) was added to a 5 mL centrifuge tube, followed by adding a series of peptide-porphyrin conjugate solutions with different concentrations, and the tube was kept overnight to evaporate the acetone completely, the concentration of pyrene being fixed at 6 μM at last. The excitation spectra of the solutions were recorded with the emission wavelength fixing at 393 nm, and the intensity ratio (I338/I335) was calculated as a function of the concentration. The CAC was determined based on the intersection point at low concentration on the plot.

EJ cells [3] = assay: Intracellular LPO content (MDA kit); assay type: cell-based
Experimental: Initially, EJ cells (5 × 10^5) were cultured in 6-well plate with a CO2 incubator overnight at 37 °C. […] Next, EJ cells were collected and washed with PBS for 3 times. Afterwards, the cell lysates were collected by centrifugation at 8000 g for 10 min at 4 °C after lysed by freeze-thaw treatment. Finally, the LPO contents were measured by thiobarbituric acid (TBA) reaction with a Malondialdehyde (MDA) Assay Kit based on the manufacturer’s instructions.

[4] = log concentration (μM) 0, replicate 1
[5] = log concentration (μM) 0, replicate 2
[6] = log concentration (μM) 0, replicate 3
[7] = log concentration (μM) 0.30103, replicate 1
[8] = log concentration (μM) 0.30103, replicate 2
[9] = log concentration (μM) 0.30103, replicate 3
[10] = log concentration (μM) 0.60206, replicate 1
[11] = log concentration (μM) 0.60206, replicate 2
[12] = log concentration (μM) 0.60206, replicate 3
[13] = log concentration (μM) 0.90309, replicate 1
[14] = log concentration (μM) 0.90309, replicate 2
[15] = log concentration (μM) 0.90309, replicate 3
[16] = log concentration (μM) 1.20412, replicate 1
[17] = log concentration (μM) 1.20412, replicate 2
[18] = log concentration (μM) 1.20412, replicate 3
[19] = log concentration (μM) 1.50515, replicate 1
[20] = log concentration (μM) 1.50515, replicate 2
[21] = log concentration (μM) 1.50515, replicate 3
[22] = log concentration (μM) 1.80618, replicate 1
[23] = log concentration (μM) 1.80618, replicate 2
[24] = log concentration (μM) 1.80618, replicate 3
[25] = log concentration (μM) 2.10721, replicate 1
[26] = log concentration (μM) 2.10721, replicate 2
[27] = log concentration (μM) 2.10721, replicate 3
[28] = log concentration (μM) 2.40824, replicate 1
[29] = log concentration (μM) 2.40824, replicate 2
[30] = log concentration (μM) 2.40824, replicate 3

Molecule: CC(C)C[C@H](NC(=O)c1ccc(-c2c3nc(c(-c4ccc(C(=O)O)cc4)c4ccc([nH]4)c(-c4ccc(C(=O)O)cc4)c4nc(c(-c5ccc(C(=O)O)cc5)c5ccc2[nH]5)C=C4)C=C3)cc1)C(=O)N[C@@H](CCCCNC(=O)/C=C(/CC(=O)O)C(=O)O)C(=O)N[C@@H](CC(C)C)C(=O)N[C@@H](CCCCN)C(=O)N[C@@H](CC(C)C)C(=O)N[C@@H](CCCCNC(=O)/C=C(/CC(=O)O)C(=O)O)C(=O)NCC(=O)N[C@@H](C)C(=O)N[C@H]1CSSC[C@@H](C(=O)N2CCC[C@H]2C(=O)N[C@H](C(=O)O)C(C)C)NC(=O)[C@@H]2CCCN2C(=O)[C@H](Cc2ccc(O)cc2)NC(=O)[C@H](CC(C)C)NC(=O)[C@@H]2CCCN2C(=O)[C@H](CC(C)C)NC(=O)[C@H](Cc2c[nH]c3ccccc23)NC(=O)[C@H](CC(N)=O)NC1=O [Gi-F-CAA] (X1-LK(X2)LKLK(X2)GACNWLPLYPCPV-OH; disulfide 9-17; C-terminus assumed)
- intracellular GSH levels (EJ cells [1]; EJ cells, pH 6.5, 40 μM, 8 h): substantial reduction of GSH levels
- Relative GSH levels (EJ cells [1]; pH=6.5, replicate #1): 0.188
- Relative GSH levels (EJ cells [1]; pH=6.5, replicate #2): 0.178
- Relative GSH levels (EJ cells [1]; pH=6.5, replicate #3): 0.129
- Relative GSH levels (EJ cells [1]; pH=7.4, replicate #1): 0.657
- Relative GSH levels (EJ cells [1]; pH=7.4, replicate #2): 0.628
- Relative GSH levels (EJ cells [1]; pH=7.4, replicate #3): 0.54
- Cell viability of HUVEC (HUVEC cells; [4]): 101.3%
- Cell viability of HUVEC (HUVEC cells; [5]): 99.35%
- Cell viability of HUVEC (HUVEC cells; [6]): 93.55%
- Cell viability of HUVEC (HUVEC cells; [7]): 97.11%
- Cell viability of HUVEC (HUVEC cells; [8]): 93.48%
- Cell viability of HUVEC (HUVEC cells; [9]): 94.74%
- Cell viability of HUVEC (HUVEC cells; [10]): 97.32%
- Cell viability of HUVEC (HUVEC cells; [11]): 86.5%
- Cell viability of HUVEC (HUVEC cells; [12]): 95.44%
- Cell viability of HUVEC (HUVEC cells; [13]): 84.68%
- Cell viability of HUVEC (HUVEC cells; [14]): 94.46%
- Cell viability of HUVEC (HUVEC cells; [15]): 84.96%
- Cell viability of HUVEC (HUVEC cells; [16]): 84.75%
- Cell viability of HUVEC (HUVEC cells; [17]): 89.22%
- Cell viability of HUVEC (HUVEC cells; [18]): 82.31%
- Cell viability of HUVEC (HUVEC cells; [19]): 77.42%
- Cell viability of HUVEC (HUVEC cells; [20]): 83.56%
- Cell viability of HUVEC (HUVEC cells; [21]): 82.86%
- Cell viability of HUVEC (HUVEC cells; [22]): 75.32%
- Cell viability of HUVEC (HUVEC cells; [23]): 80.77%
- Cell viability of HUVEC (HUVEC cells; [24]): 73.08%
- Cell viability of HUVEC (HUVEC cells; [25]): 65.68%
- Cell viability of HUVEC (HUVEC cells; [26]): 64.77%
- Cell viability of HUVEC (HUVEC cells; [27]): 61.91%
- Cell viability of HUVEC (HUVEC cells; [28]): 56.53%
- Cell viability of HUVEC (HUVEC cells; [29]): 48.01%
- Cell viability of HUVEC (HUVEC cells; [30]): 52.83%
- I338/I335 (pyrene) ([2]; conjugate 0.97656 μM): 0.974
- I338/I335 (pyrene) ([2]; conjugate 1.95313 μM): 0.9716
- I338/I335 (pyrene) ([2]; conjugate 3.90625 μM): 0.9744
- I338/I335 (pyrene) ([2]; conjugate 7.8125 μM): 0.9774
- I338/I335 (pyrene) ([2]; conjugate 15.625 μM): 0.9762
- I338/I335 (pyrene) ([2]; conjugate 31.25 μM): 0.9729
- I338/I335 (pyrene) ([2]; conjugate 62.5 μM): 0.9783
- I338/I335 (pyrene) ([2]; conjugate 125 μM): 0.9903
- I338/I335 (pyrene) ([2]; conjugate 250 μM): 1.02
- I338/I335 (pyrene) ([2]; conjugate 500 μM): 1.0656
- I338/I335 (pyrene) ([2]; conjugate 1000 μM): 1.12
- critical aggregation concentration (CAC) [2]: 149.5 µM
- Relative MDA levels (EJ cells [3]; pH=6.5, replicate #1): 4.36
- Relative MDA levels (EJ cells [3]; pH=6.5, replicate #2): 4.44
- Relative MDA levels (EJ cells [3]; pH=6.5, replicate #3): 4.68
- Relative MDA levels (EJ cells [3]; pH=7.4, replicate #1): 1.72
- Relative MDA levels (EJ cells [3]; pH=7.4, replicate #2): 1.84
- Relative MDA levels (EJ cells [3]; pH=7.4, replicate #3): 2.24

Molecule: FeTCPP-LKLKLK(SA)GACNWLPLYPCPV (disulfide) [Gi-F-SA, control conjugate decorated with non-sensitive succinic anhydride (SA) moieties]
- Relative GSH levels (EJ cells [1]; pH=7.4, replicate #1): 0.589
- Relative GSH levels (EJ cells [1]; pH=7.4, replicate #2): 0.628
- Relative GSH levels (EJ cells [1]; pH=7.4, replicate #3): 0.53
- Relative MDA levels (EJ cells [3]; pH=7.4, replicate #1): 2.76
- Relative MDA levels (EJ cells [3]; pH=7.4, replicate #2): 2.24
- Relative MDA levels (EJ cells [3]; pH=7.4, replicate #3): 2

Molecule: FeTCPP-LKLKLKGACNWLPLYPCPV (disulfide) [Gi-F]
- Cell viability of HUVEC (HUVEC cells; [4]): 101.3%
- Cell viability of HUVEC (HUVEC cells; [5]): 99.35%
- Cell viability of HUVEC (HUVEC cells; [6]): 85.17%
- Cell viability of HUVEC (HUVEC cells; [7]): 83.14%
- Cell viability of HUVEC (HUVEC cells; [8]): 92.08%
- Cell viability of HUVEC (HUVEC cells; [9]): 87.75%
- Cell viability of HUVEC (HUVEC cells; [10]): 84.4%
- Cell viability of HUVEC (HUVEC cells; [11]): 84.96%
- Cell viability of HUVEC (HUVEC cells; [12]): 81.47%
- Cell viability of HUVEC (HUVEC cells; [13]): 84.05%
- Cell viability of HUVEC (HUVEC cells; [14]): 81.61%
- Cell viability of HUVEC (HUVEC cells; [15]): 70.99%
- Cell viability of HUVEC (HUVEC cells; [16]): 70.71%
- Cell viability of HUVEC (HUVEC cells; [17]): 64.63%
- Cell viability of HUVEC (HUVEC cells; [18]): 61.91%
- Cell viability of HUVEC (HUVEC cells; [19]): 57.51%
- Cell viability of HUVEC (HUVEC cells; [20]): 49.41%
- Cell viability of HUVEC (HUVEC cells; [21]): 55.06%
- Cell viability of HUVEC (HUVEC cells; [22]): 45.98%
- Cell viability of HUVEC (HUVEC cells; [23]): 47.94%
- Cell viability of HUVEC (HUVEC cells; [24]): 46.54%
- Cell viability of HUVEC (HUVEC cells; [25]): 37.74%
- Cell viability of HUVEC (HUVEC cells; [26]): 31.25%
- Cell viability of HUVEC (HUVEC cells; [27]): 33.97%
- Cell viability of HUVEC (HUVEC cells; [28]): 21.61%
- Cell viability of HUVEC (HUVEC cells; [29]): 25.66%
- Cell viability of HUVEC (HUVEC cells; [30]): 20.7%
- cytotoxicity toward normal cells compared with Gi-F-CAA (HUVEC cells; pH 7.4): obvious increased cytotoxicity
- I338/I335 (pyrene) ([2]; conjugate 0.97656 μM): 0.9792
- I338/I335 (pyrene) ([2]; conjugate 1.95313 μM): 0.979
- I338/I335 (pyrene) ([2]; conjugate 3.90625 μM): 0.9785
- I338/I335 (pyrene) ([2]; conjugate 7.8125 μM): 0.9903
- I338/I335 (pyrene) ([2]; conjugate 15.625 μM): 1.011
- I338/I335 (pyrene) ([2]; conjugate 31.25 μM): 1.031
- I338/I335 (pyrene) ([2]; conjugate 62.5 μM): 1.099
- I338/I335 (pyrene) ([2]; conjugate 125 μM): 1.141
- I338/I335 (pyrene) ([2]; conjugate 250 μM): 1.203
- I338/I335 (pyrene) ([2]; conjugate 500 μM): 1.248
- I338/I335 (pyrene) ([2]; conjugate 1000 μM): 1.254
- critical aggregation concentration (CAC) [2]: 13.8 µM
